Measurements published in patent US20130143929A1, “FUNGICIDAL IMIDAZOLES” (EI DU PONT DE NEMOURS AND COMPANY, priority 2010, published 2013).
Marks after values point to notes of the source that are not given here.

Tests used:
Assay type in all cases: in vivo
[1] = tested on: Puccinia recondite f. sp. tritici (the causal agent of wheat leaf rust); assay: Test A: wheat leaf rust, preventive spray on wheat seedlings, visual disease rating; settings: for Test A rating (100 = 100% disease control, 0 = no disease control relative to the controls): wheat leaf rust, preventive spray on wheat seedlings, no asterisk (standard test suspension concentration, not 40 ppm); for Test A rating (% disease control, wheat leaf rust): 100 = 100% disease control
In short: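 This was a preventive test: Puccinia recondite f. sp. tritici inoculum was applied one day after compound spray to run-off. Test suspensions were made in 50/50 acetone/water with 250 ppm surfactant, at 200 ppm (800 g/ha equivalent) or 40 ppm. Visual ratings of % disease control relative to controls were made after 24 h of saturated humidity and 7 growth-chamber days, all at 20° C.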

[2] = tested on: Septoria tritici (the causal agent of wheat leaf blotch); assay: Test B: wheat leaf blotch, preventive spray on wheat seedlings, visual disease rating; settings: for Test B rating (100 = 100% disease control, 0 = no disease control relative to the controls): wheat leaf blotch, preventive spray on wheat seedlings, no asterisk (standard test suspension concentration, not 40 ppm); for Test B rating (% disease control, wheat leaf blotch): 100 = 100% disease control
In short: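 Preventive test: Septoria tritici spores applied one day after run-off spraying of seedlings (200 ppm equals 800 g/ha; some tests 40 ppm). After 48 h at 24 °C saturated atmosphere and 19 days at 20 °C, disease scored visually as % control relative to untreated plants.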

[3] = tested on: Botrytis cinerea (the causal agent of tomato Botrytis); assay: Test C: tomato Botrytis, preventive spray on tomato seedlings, visual disease rating; settings: for Test C rating (100 = 100% disease control, 0 = no disease control relative to the controls): tomato Botrytis, preventive spray on tomato seedlings, no asterisk (standard test suspension concentration, not 40 ppm); for Test C rating (% disease control, tomato Botrytis): 100 = 100% disease control
In short: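 Preventive test: B. cinerea spore inoculation one day after tomato seedlings were sprayed to run-off with compound suspended in 50/50 acetone–water plus 250 ppm surfactant. Plants held 48 h at 20° C in saturated air, then 3 days at 24° C; visual ratings scored 100 (full control) to 0 versus controls; some entries used 40 ppm.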

[4] = tested on: Blumeria graminis f. sp. tritici (also known as Erysiphe graminis f. sp. tritici, the causal agent of wheat powdery mildew); assay: Test D: wheat powdery mildew, preventive spray on wheat seedlings, visual disease rating; settings: for Test D rating (100 = 100% disease control, 0 = no disease control relative to the controls): wheat powdery mildew, preventive spray on wheat seedlings, no asterisk (standard test suspension concentration, not 40 ppm); for Test D rating (% disease control, wheat powdery mildew): 100 = 100% disease control
In short: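 Preventive test: seedlings sprayed to run-off and inoculated with powdery mildew spores one day later. Suspensions were made in 50/50 acetone/water with 250 ppm Trem 014 surfactant (200 ppm equals 800 g/ha). Visual ratings after 8 days at 20 °C give percent disease control versus controls.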

[5] = no asterisk: standard test suspension concentration, 0 = no control relative to controls
[6] = asterisk: 40 ppm test suspension, 0 = no control

Structure (SMILES) | Test A rating (100 = 100% disease control, 0 = no disease control relative to the controls) [1] [%] | Test B rating (100 = 100% disease control, 0 = no disease control relative to the controls) [2] [%] | Test C rating (100 = 100% disease control, 0 = no disease control relative to the controls) [3] [%] | Test D rating (100 = 100% disease control, 0 = no disease control relative to the controls) [4] [%] | Test D rating (% disease control, wheat powdery mildew) [4, 5] [%] | Test A rating (% disease control, wheat leaf rust) [1, 6] | Test B rating (% disease control, wheat leaf blotch) [2, 6] | Test C rating (% disease control, tomato Botrytis) [3, 6] | other results
COc1cc(F)c(C(O)c2cnc(C)n2-c2ccc(F)cc2Cl)c(F)c1 (centres unmarked) [compound 363] | 98 | 74 | 9 | 0 | – | – | – | – | –
COc1cc(F)c(C(O)c2c(Br)nc(C)n2-c2ccc(F)cc2Cl)c(F)c1 (centres unmarked) [compound 364] | 100 | 100 | 100 | 95 | – | – | – | – | –
Cc1nc(Br)c(C(O)c2c(F)cc(F)cc2F)n1-c1ccc(Cl)cc1Cl (centres unmarked) [compound 365] | 100 | 100 | 100 | 64 | – | – | – | – | –
Cc1cc(F)ccc1C(O)c1c(Cl)nc(C)n1-c1c(Cl)cccc1Cl (centres unmarked) [compound 366] | 99 | 100 | 100 | 97 | – | – | – | – | –
Cc1cc(F)ccc1C(O)c1c(Br)nc(C)n1-c1c(Cl)cccc1Cl (centres unmarked) [compound 367] | 98 | 100 | 96 | 96 | – | – | – | – | –
Cc1cc(F)ccc1C(O)c1cnc(C)n1-c1c(F)cc(F)cc1Cl (centres unmarked) [compound 368] | 100 | 100 | 99 | 0 | – | – | – | – | –
Cc1ncc(C(O)c2ccc(F)cc2Cl)n1-c1c(F)cc(F)cc1Cl (centres unmarked) [compound 370] | 100 | 100 | 100 | 0 | – | – | – | – | –
Cc1ncc(C(O)c2ccc(Cl)cc2Cl)n1-c1c(F)cc(F)cc1Cl (centres unmarked) [compound 371] | 95 | 100 | 58 | 0 | – | – | – | – | –
Cc1ncc(C(O)c2ccc(Cl)cc2)n1-c1ccc(F)cc1F (centres unmarked) [compound 378] | – | – | – | – | 0 | – | – | – | Test A rating (% disease control, wheat leaf rust) [1, 5]: 37%; Test B rating (% disease control, wheat leaf blotch) [2, 5]: 74%; Test C rating (% disease control, tomato Botrytis) [3, 5]: 0%
Cc1cc(F)ccc1C(O)c1c(Br)nc(C)n1-c1ccc(F)cc1F (centres unmarked) [compound 379] | – | – | – | – | 79 | – | – | – | Test A rating (% disease control, wheat leaf rust) [1, 5]: 100%; Test B rating (% disease control, wheat leaf blotch) [2, 5]: 100%; Test C rating (% disease control, tomato Botrytis) [3, 5]: 99%
Cc1nc(Br)c(C(O)c2ccc(Cl)cc2)n1-c1ccc(F)cc1F (centres unmarked) [compound 380] | – | – | – | – | 0 | – | – | – | Test A rating (% disease control, wheat leaf rust) [1, 5]: 98%; Test B rating (% disease control, wheat leaf blotch) [2, 5]: 100%; Test C rating (% disease control, tomato Botrytis) [3, 5]: 100%
Cc1ncc(C(O)c2ccc(F)cc2F)n1-c1ccc(F)cc1F (centres unmarked) [compound 381] | – | – | – | – | 0 | – | – | – | Test A rating (% disease control, wheat leaf rust) [1, 5]: 88%; Test B rating (% disease control, wheat leaf blotch) [2, 5]: 97%; Test C rating (% disease control, tomato Botrytis) [3, 5]: 0%
Cc1nc(Br)c(C(O)c2ccc(F)cc2F)n1-c1ccc(F)cc1F (centres unmarked) [compound 382] | – | – | – | – | 0 | – | – | – | Test A rating (% disease control, wheat leaf rust) [1, 5]: 100%; Test B rating (% disease control, wheat leaf blotch) [2, 5]: 100%; Test C rating (% disease control, tomato Botrytis) [3, 5]: 99%
Cc1nc(Cl)c(C(O)c2ccc(F)cc2Br)n1-c1c(F)cccc1F (centres unmarked) [compound 383] | – | – | – | – | – | 100* % | 100* % | 99* % | Test D rating (% disease control, wheat powdery mildew) [4, 6]: 92* %
Cc1nc(Br)c(C(O)c2ccc(F)cc2Br)n1-c1c(F)cccc1F (centres unmarked) [compound 384] | – | – | – | – | – | 100* % | 100* % | 65* % | Test D rating (% disease control, wheat powdery mildew) [4, 6]: 72* %
Cc1nc(Cl)c(C(O)c2ccc(F)cc2Br)n1-c1c(F)cccc1Cl (centres unmarked) [compound 386] | – | – | – | – | – | 100* % | 100* % | 100* % | Test D rating (% disease control, wheat powdery mildew) [4, 6]: 73* %
Cc1nc(Br)c(C(O)c2ccc(F)cc2Br)n1-c1c(F)cccc1Cl (centres unmarked) [compound 387] | – | – | – | – | 90 | 100* % | 100* % | 99* % | –
Cc1nc(Cl)c(C(O)c2ccc(F)cc2F)n1-c1c(F)cccc1Cl (centres unmarked) [compound 389] | – | – | – | – | 98 | 100* % | 100* % | 100* % | –
COc1cc(F)c(-n2c(C)nc(Br)c2C(O)c2ccc(F)cc2C)c(F)c1 (centres unmarked) [compound 391] | – | – | – | – | – | 99* % | 100* % | 0* % | Test D rating (% disease control, wheat powdery mildew) [4, 6]: 0* %
COc1cc(F)c(-n2c(C)nc(Br)c2C(O)c2ccc(F)cc2Cl)c(F)c1 (centres unmarked) [compound 392] | – | – | – | – | – | 99* % | 100* % | 0* % | Test D rating (% disease control, wheat powdery mildew) [4, 6]: 0* %
